The record followed here is ChEMBL document CHEMBL1201862, “PubChem BioAssay data set” (2004).

Assay in all cases: DTP human tumour cell line panel, 48 h
In test [1] the test system is A498.
The subject of test [2] is HCT-15.
The subject of test [3] is HT-29.
Test [4] concerns KM12.
For test [5], the system named is LOX IMVI.
In test [6] the test system is MOLT-4.
Test [7] relates to Malme-3M.
Test [8] relates to OVCAR-8.
Test [9] deals with RPMI-8226.
Test [10] has as its system SF-295.
Test [11] has as its system SK-MEL-2.
The subject of test [12] is SN12C.
For test [13], the system named is SNB-19.
For test [14], the system named is SNB-75.
Test [15] relates to SW-620.
Test [16] deals with TK-10.
Test [17] deals with UACC-62.
For test [18], the system named is OVCAR-3.
Test [19] has as its system SK-MEL-28.

SMILES strings stand for the structures.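 Five compound concentrations were applied to cells in 96-well plates for 48 hours; endpoints were derived by simple linear interpolation of the resulting dose-response curve. Here, GI50 denotes the concentration required for 50% inhibition of growth.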 Activity calls are given as the source filed them. Cut-off read from the data, not from the text of the source: active = GI50 up to about 1.1 µM and inactive = higher. Some results are limits rather than exact numbers.

Consider `O=C(O)C1c2ccccc2C(C(=O)O)c2ccccc21` (configuration not stated), for which the GI50 is > 100 µM (inactive) in [1]; above 100 µM in test [2]; > 100 µM (inactive) in [3]; > 100 µM (inactive) in test [4]; > 100 µM (inactive) in test [5]; > 100 µM (inactive) in [6]. For the same compound, the GI50 in test [7], in test [8], in test [9], in test [10], in [11] and in test [12] was > 100 µM (inactive) throughout. Also, the GI50 in test [13], in [14], in [15], in [16] and in test [17] was > 100 µM (inactive) in each case.
As to `[O-]/N=[N+](/[O-])C1CCCCC1=[N+]1CCOCC1` (configuration not stated), the GI50 in test [1], in test [3], in test [4], in test [6], in test [7] and in [18] was > 100 µM (inactive) throughout. Further, the GI50 in test [8], in [9], in [10], in [19], in test [11] and in test [12] was > 100 µM (inactive) each time. The GI50 in test [13], in test [15], in test [16] and in test [17] was > 100 µM (inactive) throughout.
Consider `CC1CC(c2ccc(Cl)c(Cl)c2)=Nc2ccccc2S1` (configuration not stated), for which the GI50 in [1] is > 100 µM (inactive); in test [2] it was above 100 µM; in test [3], > 100 µM (inactive); in [4] it was > 100 µM (inactive); in test [5], > 100 µM (inactive); in [6], > 100 µM (inactive). For the same compound, the GI50 is > 100 µM (inactive) in test [7]; 44.5 µM (inactive) in [18]; > 100 µM (inactive) in [8]; > 100 µM (inactive) in [9]; > 100 µM (inactive) in test [10]; > 100 µM (inactive) in test [19]. Moreover, the GI50 in test [12], in [13], in test [14], in [15], in [16] and in test [17] was > 100 µM (inactive) in each case.
Turning to `CC(C)(C)/N=C/N1C=Cc2nc3ccccc3cc2C1`, the GI50 is > 100 µM (inactive) in test [1]; 57.1 µM in test [2]; > 100 µM (inactive) in [3]; > 100 µM (inactive) in test [4]; 26.7 µM (inactive) in test [5]; > 100 µM (inactive) in [6]. Moreover, the GI50 in test [7], in test [18], in test [8], in test [10], in test [19] and in test [11] was > 100 µM (inactive) in each case. For the same compound, the GI50 in [12] was > 100 µM (inactive); in [13], > 100 µM (inactive); in test [14] it was > 100 µM (inactive); in test [15], 19.5 µM (inactive); in test [16] it was > 100 µM (inactive); in test [17], > 100 µM (inactive).
With `CN1c2ccccc2N(C)C23N(C)c4ccccc4N(C)C12N(C)c1ccccc1N3C` (configuration not stated), the GI50 in test [1] is > 100 µM (inactive); in test [2], above 100 µM; in [3], > 100 µM (inactive); in [4], > 100 µM (inactive); in [5], > 100 µM (inactive); in test [6], > 100 µM (inactive). The GI50 in test [7] is > 100 µM (inactive); in test [18] it was 33.6 µM (inactive); in test [8] it was > 100 µM (inactive); in [10], > 100 µM (inactive); in [19] it was > 100 µM (inactive); in [11] it was > 100 µM (inactive). For the same compound, the GI50 in [12] is > 100 µM (inactive); in [13], > 100 µM (inactive); in test [14], 35.6 µM (inactive); in [15], > 100 µM (inactive); in test [16] it was > 100 µM (inactive); in test [17], > 100 µM (inactive).
Turning to `CC1=NOC(=O)/C1=C/c1ccc([N+](=O)[O-])cc1`, the GI50 in test [1] is > 100 µM (inactive); in [2], above 100 µM; in [3] it was > 100 µM (inactive); in test [4], > 100 µM (inactive); in [5], > 100 µM (inactive); in test [6], > 100 µM (inactive). The GI50 in test [7], in [18], in test [8], in test [10], in test [19] and in test [11] was > 100 µM (inactive) throughout. Besides, the GI50 in test [12] was > 100 µM (inactive); in test [13], > 100 µM (inactive); in test [14], > 100 µM (inactive); in test [15] it was 59 µM (inactive); in test [16] it was > 100 µM (inactive); in [17], > 100 µM (inactive).
For `CC(=O)c1sc(Nc2nnc(-c3ccc(-c4nnc(Nc5nc(C)c(C(C)=O)s5)o4)cc3)o2)nc1C`, the GI50 was > 100 µM (inactive) in test [1]; above 100 µM in test [2]; > 100 µM (inactive) in test [3]; > 10 µM (inactive) in test [4]; > 100 µM (inactive) in test [5]; > 100 µM (inactive) in test [6]. The GI50 in test [7], in test [18], in [8], in test [9], in test [10] and in [19] was > 100 µM (inactive) throughout. Also, the GI50 in [12], in test [13], in [15], in test [16] and in test [17] was > 100 µM (inactive) each time.
On to `C[n+]1c2ccccc2c(NC(CCCNC(=N)N)C(=O)O)c2ccccc21` (configuration not stated), for which the GI50 was > 100 µM (inactive) in test [1]; above 100 µM in test [2]; > 100 µM (inactive) in [3]; > 100 µM (inactive) in test [4]; > 100 µM (inactive) in test [6]; > 100 µM (inactive) in test [7]. Further, the GI50 in test [18] is > 100 µM (inactive); in test [8], > 100 µM (inactive); in test [9] it was 7.55 µM (inactive); in test [10], > 100 µM (inactive); in test [11], > 100 µM (inactive); in test [12], > 100 µM (inactive). For the same compound, the GI50 in test [13], in test [14], in test [15], in test [16] and in [17] was > 100 µM (inactive) throughout.
Turning to `O=c1cc(-c2ccc(Cl)cc2)oc2cc(OCCCOc3ccc4c(=O)cc(-c5ccc(Cl)cc5)oc4c3)ccc12`, the GI50 is above 100 µM in test [2]; > 100 µM (inactive) in [3]; > 100 µM (inactive) in test [4]; > 100 µM (inactive) in [5]; > 100 µM (inactive) in [6]; > 100 µM (inactive) in test [7]. Besides, the GI50 in test [18], in [8], in [9], in test [10], in [19] and in [11] was > 100 µM (inactive) in each case. Moreover, the GI50 in test [12] is > 100 µM (inactive); in test [13], > 100 µM (inactive); in test [14], 45.2 µM (inactive); in test [15], > 100 µM (inactive); in test [16] it was > 100 µM (inactive); in [17] it was > 100 µM (inactive).
Turning to `O=C1NC2CCC(C2)C1c1ccccc1` (configuration not stated), the GI50 in test [1], in [3], in test [4], in test [5], in test [6] and in [7] was > 100 µM (inactive) throughout. Also, the GI50 in [18], in test [8], in test [9], in [10], in [19] and in test [12] was > 100 µM (inactive) each time. The GI50 in test [13], in [14], in test [15], in test [16] and in test [17] was > 100 µM (inactive) in each case.
For `COC(=O)c1cc(CC(C)C)c2c(c1)[nH]c1ccccc12`, the GI50 is > 100 µM (inactive) in [1]; 52.1 µM in [2]; > 100 µM (inactive) in test [3]; 91.2 µM (inactive) in test [4]; > 100 µM (inactive) in test [5]; 34 µM (inactive) in test [6]. Besides, the GI50 in test [7], in [18], in test [8], in test [10], in [19] and in test [11] was > 100 µM (inactive) throughout. For the same compound, the GI50 in test [12] was > 100 µM (inactive); in test [13], > 100 µM (inactive); in test [14], 18.2 µM (inactive); in test [15], 47.2 µM (inactive); in test [16], > 100 µM (inactive); in test [17], 96.8 µM (inactive).

In general, GI50 refers to the concentration giving 50% growth inhibition.
